Results from PubChem BioAssay AID1963435 (Molecular Pharmacology Branch, DTP, NCI, 2024).

System: PANC-1 complex spheroid growth, percent test/control
Test: Anticancer human tumor PANC-1 cell line growth inhibition [Asc];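 further: spheroids exposed to agents for 7 days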;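 on viability, T/C: percent viability relative to DMSO vehicle wells taken as 100%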
Conditions: for IC50: curve of first compound; for viability, T/C: stronger effect = lower value
Procedure, shortened: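 Tumor cells were grown as complex spheroids with human endothelial cells (HUVEC) and human mesenchymal stem cells as stroma. Agents were tested alone and in combination, in half-log steps down from the clinical Cmax, or from 10 microM where Cmax was unknown.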

[1] = second compound 0.00949 µM, first compound 0.0316 µM
[2] = second compound 0.00949 µM, first compound 0.1 µM
[3] = second compound 0.00949 µM, first compound 0.316 µM
[4] = second compound 0.00949 µM, first compound 1 µM
[5] = second compound 0.03 µM, first compound 0.0316 µM
[6] = second compound 0.03 µM, first compound 0.1 µM
[7] = second compound 0.03 µM, first compound 0.316 µM
[8] = second compound 0.03 µM, first compound 1 µM
[9] = second compound 0.0949 µM, first compound 0.0316 µM
[10] = second compound 0.0949 µM, first compound 0.1 µM
[11] = second compound 0.0949 µM, first compound 0.316 µM
[12] = second compound 0.0949 µM, first compound 1 µM
[13] = second compound 0.3 µM, first compound 0.0316 µM
[14] = second compound 0.3 µM, first compound 0.1 µM
[15] = second compound 0.3 µM, first compound 0.316 µM
[16] = second compound 0.3 µM, first compound 1 µM
[17] = second compound 0.949 µM, first compound 0.0316 µM
[18] = second compound 0.949 µM, first compound 0.1 µM
[19] = second compound 0.949 µM, first compound 0.316 µM
[20] = second compound 0.949 µM, first compound 1 µM
[21] = second compound 3 µM, first compound 0.0316 µM
[22] = second compound 3 µM, first compound 0.1 µM
[23] = second compound 3 µM, first compound 0.316 µM
[24] = second compound 3 µM, first compound 1 µM
[25] = second compound 0.00949 µM, first compound 0.00316 µM
[26] = second compound 0.00949 µM, first compound 0.01 µM
[27] = second compound 0.03 µM, first compound 0.00316 µM
[28] = second compound 0.03 µM, first compound 0.01 µM
[29] = second compound 0.0949 µM, first compound 0.00316 µM
[30] = second compound 0.0949 µM, first compound 0.01 µM
[31] = second compound 0.3 µM, first compound 0.00316 µM
[32] = second compound 0.3 µM, first compound 0.01 µM
[33] = second compound 0.949 µM, first compound 0.00316 µM
[34] = second compound 0.949 µM, first compound 0.01 µM
[35] = second compound 3 µM, first compound 0.00316 µM
[36] = second compound 3 µM, first compound 0.01 µM

C=CC(=O)N1CCN(c2nc(=O)n(-c3c(C)ccnc3C(C)C)c3nc(-c4c(O)cccc4F)c(F)cc23)C(C)C1 (stereo unspecified) + CCN1C(C(=O)NC23CCC(C(=O)O)(CC2)CC3)C(c2cccc(Cl)c2F)C2(C(=O)Nc3cc(Cl)ccc32)C12CCCCC2
IC50 (second compound 0.00949 µM): > 10000 nM | IC50 (second compound 0.03 µM): > 10000 nM | IC50 (second compound 0.0949 µM): > 10000 nM | IC50 (second compound 0.3 µM): > 10000 nM | IC50 (second compound 0.949 µM): > 10000 nM | IC50 (second compound 3 µM): > 10000 nM | viability, T/C [1]: 98.1% | viability, T/C [2]: 96.8% | viability, T/C [3]: 86% | viability, T/C [4]: 98.8% | viability, T/C (second compound 0.00949 µM, first compound 3.16 µM): 90.4% | viability, T/C (second compound 0.00949 µM, first compound 10 µM): 96% | viability, T/C [5]: 101% | viability, T/C [6]: 92.5% | viability, T/C [7]: 100% | viability, T/C [8]: 103% | viability, T/C (second compound 0.03 µM, first compound 3.16 µM): 97.8% | viability, T/C (second compound 0.03 µM, first compound 10 µM): 77.5% | viability, T/C [9]: 111% | viability, T/C [10]: 101% | viability, T/C [11]: 97.5% | viability, T/C [12]: 94% | viability, T/C (second compound 0.0949 µM, first compound 3.16 µM): 95.6% | viability, T/C (second compound 0.0949 µM, first compound 10 µM): 91.2% | viability, T/C [13]: 109% | viability, T/C [14]: 95.3% | viability, T/C [15]: 106% | viability, T/C [16]: 110% | viability, T/C (second compound 0.3 µM, first compound 3.16 µM): 93.6% | viability, T/C (second compound 0.3 µM, first compound 10 µM): 93.2% | viability, T/C [17]: 116% | viability, T/C [18]: 107% | viability, T/C [19]: 96.4% | viability, T/C [20]: 103% | viability, T/C (second compound 0.949 µM, first compound 3.16 µM): 94.7% | viability, T/C (second compound 0.949 µM, first compound 10 µM): 93.1% | viability, T/C [21]: 120% | viability, T/C [22]: 115% | viability, T/C [23]: 114% | viability, T/C [24]: 121% | viability, T/C (second compound 3 µM, first compound 3.16 µM): 109% | viability, T/C (second compound 3 µM, first compound 10 µM): 102%

COc1c(OCCCN2CCOCC2)ccc2c3n(c(=NC(=O)c4cnc(N)nc4)nc12)CCN3 + CCN1C(C(=O)NC23CCC(C(=O)O)(CC2)CC3)C(c2cccc(Cl)c2F)C2(C(=O)Nc3cc(Cl)ccc32)C12CCCCC2
IC50 (second compound 0.00949 µM): 315 nM | IC50 (second compound 0.03 µM): 423 nM | IC50 (second compound 0.0949 µM): 267 nM | IC50 (second compound 0.3 µM): 306 nM | IC50 (second compound 0.949 µM): 279 nM | IC50 (second compound 3 µM): 284 nM | viability, T/C [25]: 87.6% | viability, T/C [26]: 96.3% | viability, T/C [1]: 101% | viability, T/C [2]: 85.2% | viability, T/C [3]: 50.2% | viability, T/C [4]: 30.3% | viability, T/C [27]: 91.7% | viability, T/C [28]: 91.1% | viability, T/C [5]: 97.2% | viability, T/C [6]: 76.7% | viability, T/C [7]: 56% | viability, T/C [8]: 35.8% | viability, T/C [29]: 94.9% | viability, T/C [30]: 101% | viability, T/C [9]: 92.5% | viability, T/C [10]: 70.5% | viability, T/C [11]: 47.9% | viability, T/C [12]: 31.2% | viability, T/C [31]: 110% | viability, T/C [32]: 106% | viability, T/C [13]: 95.2% | viability, T/C [14]: 77.1% | viability, T/C [15]: 47.5% | viability, T/C [16]: 35.8% | viability, T/C [33]: 108% | viability, T/C [34]: 96.7% | viability, T/C [17]: 95.6% | viability, T/C [18]: 75.3% | viability, T/C [19]: 45.9% | viability, T/C [20]: 34.5% | viability, T/C [35]: 118% | viability, T/C [36]: 109% | viability, T/C [21]: 92% | viability, T/C [22]: 79.3% | viability, T/C [23]: 42.2% | viability, T/C [24]: 32.5%

NC1CCC(NC2CC2c2ccccc2)CC1 (stereo unspecified) + CCN1C(C(=O)NC23CCC(C(=O)O)(CC2)CC3)C(c2cccc(Cl)c2F)C2(C(=O)Nc3cc(Cl)ccc32)C12CCCCC2
IC50 (second compound 0.00949 µM): > 100 nM | IC50 (second compound 0.03 µM): > 100 nM | IC50 (second compound 0.0949 µM): > 100 nM | IC50 (second compound 0.3 µM): > 100 nM | IC50 (second compound 0.949 µM): > 100 nM | IC50 (second compound 3 µM): > 100 nM | viability, T/C (second compound 0.00949 µM, first compound 0.000316 µM): 97.6% | viability, T/C (second compound 0.00949 µM, first compound 0.001 µM): 89% | viability, T/C [25]: 97.2% | viability, T/C [26]: 85.9% | viability, T/C [1]: 82% | viability, T/C [2]: 104% | viability, T/C (second compound 0.03 µM, first compound 0.000316 µM): 84.6% | viability, T/C (second compound 0.03 µM, first compound 0.001 µM): 90.1% | viability, T/C [27]: 103% | viability, T/C [28]: 87% | viability, T/C [5]: 91.2% | viability, T/C [6]: 90.1% | viability, T/C (second compound 0.0949 µM, first compound 0.000316 µM): 99.7% | viability, T/C (second compound 0.0949 µM, first compound 0.001 µM): 94.7% | viability, T/C [29]: 93.5% | viability, T/C [30]: 95.5% | viability, T/C [9]: 97.7% | viability, T/C [10]: 95.4% | viability, T/C (second compound 0.3 µM, first compound 0.000316 µM): 96.7% | viability, T/C (second compound 0.3 µM, first compound 0.001 µM): 101% | viability, T/C [31]: 102% | viability, T/C [32]: 98.2% | viability, T/C [13]: 102% | viability, T/C [14]: 91% | viability, T/C (second compound 0.949 µM, first compound 0.000316 µM): 109% | viability, T/C (second compound 0.949 µM, first compound 0.001 µM): 115% | viability, T/C [33]: 104% | viability, T/C [34]: 107% | viability, T/C [17]: 97.2% | viability, T/C [18]: 89.2% | viability, T/C (second compound 3 µM, first compound 0.000316 µM): 109% | viability, T/C (second compound 3 µM, first compound 0.001 µM): 112% | viability, T/C [35]: 101% | viability, T/C [36]: 110% | viability, T/C [21]: 95.6% | viability, T/C [22]: 110%
